Reference: patent US7074742B2, “Pyridinyl amides and imides for use as fungicides” (E. I. du Pont de Nemours and Company, priority 2000, dated 2006)
Marks after values point to notes of the source that are not given here.

Experiments:
Type in all cases: in vivo
Pyricularia oryzae = conditions: preventive spray on rice seedlings; 100 = 100% disease control, 0 = no control; concentration not marked in table
Plasmopara viticola [1] = test: TEST G: curative spray on inoculated grape seedlings, grape downy mildew, disease rating; conditions: for curative utility: curative (post-infection) use, especially for grape downy mildew, statement in words; for Test G disease control rating (grape downy mildew, curative): curative spray on inoculated grape seedlings
Phytophthora infestans [2] = conditions: curative spray; 100 ppm on potato seedlings
Plasmopara viticola [3] = test: TEST E: preventive spray on grape seedlings, grape downy mildew, disease rating; conditions: 100 = 100% disease control, 0 = no control, concentration not marked in table
Phytophthora infestans [4] = conditions: preventive spray on tomato seedlings; 100 = 100% disease control, 0 = no control; concentration not marked in table
Puccinia recondita = test: TEST B: preventive spray on wheat seedlings, wheat leaf rust, disease rating; conditions: 100 = 100% disease control, 0 = no control, concentration not marked in table
[5] = test system: Erysiphe graminis f. sp. tritici; test: TEST A: preventive spray on wheat seedlings, wheat powdery mildew, disease rating; conditions: 100 = 100% disease control, 0 = no control relative to controls, concentration not marked in table
[6] = concentration not marked in table

SMILES | Test C disease control rating (rice blast) (Pyricularia oryzae) [%] | curative utility (Plasmopara viticola [1]) | Test G disease control rating (grape downy mildew, curative) (Plasmopara viticola [1]; 100 ppm) | Test F disease control rating (late blight, curative) (Phytophthora infestans [2]) | Test E disease control rating (grape downy mildew) (Plasmopara viticola [3]) [%] | Test D disease control rating (potato and tomato late blight) (Phytophthora infestans [4]) [%] | Test G disease control rating (grape downy mildew, curative) (Plasmopara viticola [1]; [6]) [%] | Test B disease control rating (wheat leaf rust) (Puccinia recondita) [%] | Test A disease control rating (wheat powdery mildew) [5] [%]
O=C(NCc1ncc(C(F)(F)F)cc1Cl)c1c(Cl)ccnc1Cl [Compound 28] | 0 | significant curative utility | 37* % | 97# % | 100 | 100 | – | – | –
CC(NC(=O)c1c(Cl)ccnc1Cl)c1ncc(Br)cc1Cl (racemic) [Compound 37] | 0 | significant curative utility | – | – | 100 | 100 | 100 | 19 | 0
CC(NC(=O)c1c(Cl)ccnc1Cl)c1ncc(Cl)cc1Cl (racemic) [Compound 36] | 0 | significant curative utility | – | – | 100 | 100 | 100 | 38 | 0
